Entries after “also recorded” stand apart in the source; their conditions may differ.
Columns and labels:
pulmonary cells = assay: Luciferase activity in lungs of mice after intratracheal injection of plasmid/polar compound compositions; format: in vivo; settings: B6/SJLF1 mice
Method: The chosen polynucleotide, i.e. the plasmid pTG11033 (FIG. 1), encompasses the gene encoding luciferase placed under the control of the CMV promoter, intron 1 of the HMG gene and the SV40 polyA termination signal. The plasmid DNA contained in 250 μl of a 1 mg/ml solution of purified plasmid (purified by centrifugation in a cesium chloride gradient) is precipitated with ethanol. After having been centrifuged, washed with 70% ethanol and dried, the nucleic acid pellet is taken up in a given volume of DESO or DPSO and of 20 mM Hepes buffer, pH 7.5, in order to give the following compositions as shown in Table I below: The 8-week-old female mice (B6/SJLF1, Iffa Credo) were anaesthetized by means of intraperitoneal injection (physiological saline, […] 1000, xylazine/ROMPUN). […] Each composition is injected into at least three different mice. The expression levels are compared with those obtained after injecting 50 μg of DNA in 50 μl of 20 mM Hepes, pH 7.5, without any addition of polar compound. A control in which the mice are not injected is also included in the protocol. The mice are sacrificed two days after the injections. The lungs and the trachea are treated independently. The tissues are frozen in liquid nitrogen and stored at -80° C. In order to measure the luciferase activity, the tissues are ground up mechanically using a pestle in a mortar which is placed on dry ice. 500 μl or 200 μl of a lysis buffer (Promega) are added to the tissue fragments obtained from the lungs or the trachea, respectively, and the solution is subjected to three steps of freezing/thawing. The cell debris is removed by centrifugation and the luciferase activity (in RLU/min, relative light unit per minute) is measured on 20 μl of supernatant, in accordance with the supplier's (Promega) instructions, by adding 100 μl of reagent and measuring the activity by means of luminescence. The luciferase activity which is measured is standardized in relation to the quantity of protein with the aid of a standard scale which is generated using commercially available luciferase (Promega). […]

plasmid DNA (pTG11033) = assay: Plasmid DNA melting curves; format: physicochemical; settings: 50 μg/ml pTG11033 in 20 mM HEPES pH 7.5, 0-20% DPSO, 35-100° C., 260 nm; versus DNA alone
Method: Plasmid DNA melting curves were recorded on a thermostated UV/Visible CARY/VARIAN spectrophotometer (sofware version: 3.04) using 2 quartz cuvettes (L=1cm) with Teflon stopper.

airways cell = assay: Theophylline pretreatment before airway delivery of a composition comprising DPSO; format: in vivo; settings: oral 0.3 mg theophylline to mice about 30 min before composition comprising DPSO
From the text: Finally, the invention relates to a cell which is transfected with a composition as previously defined, in particular a prokaryotic cell, or a yeast or eukaryotic cell, in particular an animal cell, in particular a mammalian cell, more especially a cancerous cell. According to a preferred embodiment of the invention, the said cell is an airways cell, more especially a tracheal or pulmonary cell, advantageously a cell of the respiratory epithelium. In the case of airway delivery, prior administration of bronchodilator compounds (for example, theophylline) could be advantageous.

SMILES	measured level of expression of the luciferase-encoding gene on increasing the percentage of the compound (pulmonary cells; 50 μg DNA, FIG. 4)	expression of the luciferase gene in the pulmonary tissues (pulmonary cells; 50 μg DNA/50 μl, 15% (v/v) polar compound, sacrificed two days after injection, compared with polynucleotide alone)	transfection of the pulmonary cells (luciferase expression) (pulmonary cells; 50 μg pTG11033/50 μl, 10 or 15% polar compound, compared with polynucleotide on its own)	Absorbance change upon DNA melting (plasmid DNA (pTG11033))	temperature at which absorbance change (DNA melting) occurs (plasmid DNA (pTG11033))	expression level compared with administration without pretreatment (airways cell)
CCC[S+]([O-])CCC [DPSO, di-n-propyl sulphoxide]	improve the measured level of expression	increases expression; also recorded: markedly improved	best results	lowered	higher temperature	
Cn1c(=O)c2[nH]cnc2n(C)c1=O [theophylline]						slightly increase of the expression level
